Reference: patent EP4483954A1 (Masarykova Univerzita, priority 2023, dated 2025)

Key:
Type in all cases: biochemical
[1] = biological target: T1, PIM1 (h) (Homo sapiens, UniProt P11309); experiment: radiometric kinase assay (KinaseProfiler, Eurofins), PIM1; conditions: in vitro radiometric kinase assay, tested at 1 nM to 10 000 nM, no pre-incubation; read-out: inhibitory activities (IC50 values) PIM1
T1 construct: purchased Eurofins (KinaseProfiler)
Experimental: (§1) The compounds were profiled in the radiometric assays (KinaseProfiler, Eurofins).
(§2) Briefly, kinases were diluted in the buffer shown below prior to addition to the reaction mix: • CDKL3, TAF1L: 20 mM Tris/HCl pH 8.5, 0.2 mM EDTA, 0.1% β-mercaptoethanol, 0.01% Brij-35, 5% glycerol, 1 mg/ml BSA; • Haspin: 15 mM MOPS, 0.75 mM EDTA, 0.0075% Brij-35, 3.75% Glycerol, 150 mM NaCl, 0.1% β-mercaptoethanol, 1 mg/mLBSA; • CDKL4, CLK2, PIM1, TRB2: […], 1 mM EDTA, 0.01% Brij-35, 5% Glycerol, 0.1% β-mercaptoethanol, 1 mg/mL BSA.
(§3) All compounds were prepared to 50x final assay concentration in 100% DMSO. This working stock of the compound was added to the assay well as the first component in the reaction, followed by the remaining components as detailed in the general assay protocols below. There was no pre-incubation step between the compound and the kinase prior to initiation of the reaction.
(§4) PIM1 (h) was incubated with 8 mM MOPS pH 7.0, 0.2 mM EDTA, 100 µM KKRNRTLTV (SEQ ID NO. 4), 10 mM magnesium acetate and γ-^33P-ATP (specific activity and concentration as required). The reaction was initiated by the addition of the Mg/ATP mix. After incubation for 40 minutes at room temperature, the reaction was stopped by the addition of phosphoric acid to a concentration of 0.5%. An aliquot of the reaction was then spotted onto a filter and washed four times for 4 minutes in 0.425% phosphoric acid and once in methanol prior to drying and scintillation counting.
(§5) Kinase activity data were expressed as the percent remaining kinase activity in tested samples compared to the vehicle (DMSO) reactions. The compounds were tested at the following concentrations: 1 nM, 3 nM, 10 nM, 30 nM, 100 nM, 300 nM, 1000 nM, 3000 nM, and 10 000 nM; IC50 values and curve fits were then obtained.

[2] = biological target: T2, CDKL3(h) (Homo sapiens, UniProt Q8IVW4); experiment: radiometric kinase assay (KinaseProfiler, Eurofins), CDKL3; conditions: in vitro radiometric kinase assay, tested at 1 nM to 10 000 nM, no pre-incubation; read-out: inhibitory activities (IC50 values) CDKL3
T2 construct: purchased Eurofins (KinaseProfiler)
Experimental: as §1, §2, §3
CDKL3(h) was incubated with 8 mM MOPS pH 7.0, 0.2 mM EDTA, 250 µM RRRFRPASPLRGPPK (SEQ ID NO. 1), 10 mM magnesium acetate and γ-^33P-ATP (specific activity and concentration as required). The reaction was initiated by the addition of the Mg/ATP mix. After incubation for 120 minutes at room temperature, the reaction was stopped by the addition of phosphoric acid to a concentration of 0.5%. An aliquot of the stopped reaction was spotted onto a filter and washed four times for 4 minutes in 0.425% phosphoric acid and once in methanol prior to drying and scintillation counting.
as §5

[3] = biological target: T3, Haspin (h) (Homo sapiens, UniProt Q8TF76); experiment: radiometric kinase assay (KinaseProfiler, Eurofins), Haspin; conditions: in vitro radiometric kinase assay, tested at 1 nM to 10 000 nM, no pre-incubation; read-out: inhibitory activities (IC50 values) Haspin
T3 construct: purchased Eurofins (KinaseProfiler)
T3 sequence (Q8TF76 1-798): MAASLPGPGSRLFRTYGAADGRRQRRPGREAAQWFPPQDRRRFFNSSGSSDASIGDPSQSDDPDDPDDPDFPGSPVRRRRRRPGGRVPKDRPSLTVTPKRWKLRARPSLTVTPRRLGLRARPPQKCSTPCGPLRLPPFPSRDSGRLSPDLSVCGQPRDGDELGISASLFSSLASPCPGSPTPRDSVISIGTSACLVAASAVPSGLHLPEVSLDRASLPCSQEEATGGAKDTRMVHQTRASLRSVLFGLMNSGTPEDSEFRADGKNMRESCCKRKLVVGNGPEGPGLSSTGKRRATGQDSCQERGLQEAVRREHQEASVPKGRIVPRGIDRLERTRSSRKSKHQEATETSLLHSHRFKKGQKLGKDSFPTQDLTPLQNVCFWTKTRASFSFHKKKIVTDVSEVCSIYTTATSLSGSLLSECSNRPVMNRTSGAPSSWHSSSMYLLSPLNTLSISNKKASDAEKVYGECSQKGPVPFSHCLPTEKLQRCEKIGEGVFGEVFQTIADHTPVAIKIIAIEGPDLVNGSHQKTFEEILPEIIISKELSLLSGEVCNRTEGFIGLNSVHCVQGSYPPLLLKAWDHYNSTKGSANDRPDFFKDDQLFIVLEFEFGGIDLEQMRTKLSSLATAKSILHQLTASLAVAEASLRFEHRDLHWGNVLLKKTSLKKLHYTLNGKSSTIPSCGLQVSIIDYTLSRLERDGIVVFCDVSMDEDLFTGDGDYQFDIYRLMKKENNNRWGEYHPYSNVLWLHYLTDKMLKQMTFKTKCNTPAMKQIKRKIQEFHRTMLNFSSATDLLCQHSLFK
In short: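 Human Haspin in 8 mM MOPS pH 7.0 with 500 µM RARTLSFAEPG, 10 mM Mg acetate and γ-33P-ATP; compound added without preincubation. Reaction ran 40 min at room temperature, then filter-bound 33P was counted. Nine concentrations from 1 to 10 000 nM gave % remaining activity versus DMSO, and IC50 came from curve fit.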

[4] = biological target: T4, CLK2 (h) (Homo sapiens, UniProt P49760); experiment: radiometric kinase assay (KinaseProfiler, Eurofins), CLK2; conditions: in vitro radiometric kinase assay, tested at 1 nM to 10 000 nM, no pre-incubation; read-out: inhibitory activities (IC50 values) CLK2
T4 construct: purchased Eurofins (KinaseProfiler)
Experimental: as §1, §2, §3
as §4, with “CLK2” for “PIM1”, “20” for “100”, “[…](p)EDEEE” for “KKRNRTLTV”, “2),” for “4),”
as §5

T2 sequence (Q8IVW4 whole entry): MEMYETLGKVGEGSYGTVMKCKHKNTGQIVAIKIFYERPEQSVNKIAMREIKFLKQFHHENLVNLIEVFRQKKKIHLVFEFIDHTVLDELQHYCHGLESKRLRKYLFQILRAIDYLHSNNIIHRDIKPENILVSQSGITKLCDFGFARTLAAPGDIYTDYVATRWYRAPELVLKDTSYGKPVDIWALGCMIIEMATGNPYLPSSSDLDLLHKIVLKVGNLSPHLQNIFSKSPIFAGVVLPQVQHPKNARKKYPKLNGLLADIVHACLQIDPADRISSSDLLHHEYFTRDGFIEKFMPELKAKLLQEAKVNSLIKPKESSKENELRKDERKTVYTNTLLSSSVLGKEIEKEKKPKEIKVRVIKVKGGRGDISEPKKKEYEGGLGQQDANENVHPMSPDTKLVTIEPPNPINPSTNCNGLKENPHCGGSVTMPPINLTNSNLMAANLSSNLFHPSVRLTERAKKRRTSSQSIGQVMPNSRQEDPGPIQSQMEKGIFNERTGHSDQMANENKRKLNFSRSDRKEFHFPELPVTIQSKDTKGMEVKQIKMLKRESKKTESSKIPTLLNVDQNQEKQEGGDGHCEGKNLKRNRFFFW
T1 sequence (P11309 whole entry): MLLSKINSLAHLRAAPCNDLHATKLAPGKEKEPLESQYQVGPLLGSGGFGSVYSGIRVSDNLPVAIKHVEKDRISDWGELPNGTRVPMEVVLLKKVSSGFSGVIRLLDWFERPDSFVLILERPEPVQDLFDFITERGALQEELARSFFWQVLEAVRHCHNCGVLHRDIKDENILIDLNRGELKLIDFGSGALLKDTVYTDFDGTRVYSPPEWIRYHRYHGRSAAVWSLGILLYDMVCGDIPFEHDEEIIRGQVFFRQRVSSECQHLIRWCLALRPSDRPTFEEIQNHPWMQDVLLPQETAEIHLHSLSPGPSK
T4 sequence (P49760 whole entry): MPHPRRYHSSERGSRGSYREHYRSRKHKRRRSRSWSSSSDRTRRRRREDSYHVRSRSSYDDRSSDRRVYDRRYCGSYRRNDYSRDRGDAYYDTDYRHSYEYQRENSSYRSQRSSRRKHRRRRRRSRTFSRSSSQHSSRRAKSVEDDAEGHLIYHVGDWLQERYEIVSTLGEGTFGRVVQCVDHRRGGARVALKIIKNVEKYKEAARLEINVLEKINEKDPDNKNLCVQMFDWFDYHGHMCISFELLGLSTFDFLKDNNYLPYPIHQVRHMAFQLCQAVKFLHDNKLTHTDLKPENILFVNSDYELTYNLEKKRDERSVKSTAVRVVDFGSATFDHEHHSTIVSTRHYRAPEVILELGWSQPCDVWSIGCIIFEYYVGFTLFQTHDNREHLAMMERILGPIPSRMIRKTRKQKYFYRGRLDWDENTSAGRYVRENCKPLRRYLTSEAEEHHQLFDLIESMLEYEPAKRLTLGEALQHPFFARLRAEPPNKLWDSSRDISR

IC50 [1] [nM]	IC50 [2] [nM]	IC50 [3] [nM]	IC50 [4] [nM]	SMILES
3000 to 10000	500 to 3000	500 to 3000	3000 to 10000	Cn1nccc1-c1ccc2scc(-c3ccncc3)c2n1 [Preparative Example 90, 5-(1-methyl-1H-pyrazol-5-yl)-3-(pyridin-4-yl)thieno[3,2-b]pyridine]
3000 to 10000	3000 to 10000	3000 to 10000	3000 to 10000	c1ccc(-c2csc3ccc(-c4cnoc4)nc23)cc1 [Preparative Example 124, 4-(3-phenylthieno[3,2-b]pyridin-5-yl)isoxazole]
100 to 499	500 to 3000	20 to 99	500 to 3000	Cn1cncc1-c1ccc2scc(-c3ccncc3)c2n1 [Preparative Example 91, 5-(1-methyl-1H-imidazol-5-yl)-3-(pyridin-4-yl)thieno[3,2-b]pyridine]
3000 to 10000	500 to 3000	3000 to 10000	3000 to 10000	Cn1cc(-c2ccc3scc(-c4ccncc4)c3n2)c(NC(=O)OC(C)(C)C)n1 [Preparative Example 83, tert-butyl(1-methyl-4-(3-(pyridin-4-yl)thieno[3,2-b]pyridin-5-yl)-1H-pyrazol-3-yl)carbamate]
100 to 499	100 to 499	100 to 499	500 to 3000	COc1cc(-c2csc3ccc(-c4cnn(C)c4)nc23)ccn1 [Preparative Example 17, 3-(2-methoxypyridin-4-yl)-5-(1-methyl-1H-pyrazol-4-yl)thieno[3.2-b]pyridine]
3000 to 10000	500 to 3000	20 to 99	3000 to 10000	Cn1ccc(-c2ccc3scc(-c4ccncc4)c3n2)n1 [Preparative Example 86, 5-(1-methyl-1H-pyrazol-3-yl)-3-(pyridin-4-yl)thieno[3,2-b]pyridine]
100 to 499	100 to 499	100 to 499	500 to 3000	Cn1cc(-c2ccc3scc(-c4ccncc4F)c3n2)cn1 [Preparative Example 36, 3-(3-fluoropyridin-4-yl)-5-(1-methyl-1H-pyrazol-4-yl)thieno[3,2-b]pyridine]
3000 to 10000	500 to 3000	100 to 499	3000 to 10000	Cn1ccc(-c2cc(Cl)c3scc(-c4ccncc4)c3n2)n1 [Preparative Example 163, 7-chloro-5-(1-methyl-1H-pyrazol-3-yl)-3-(pyridin-4-yl)thieno[3,2-b]pyridine]
3000 to 10000	3000 to 10000	3000 to 10000	3000 to 10000	c1ccc(-c2csc3ccc(-c4ccoc4)nc23)cc1 [Preparative Example 123, 5-(furan-3-yl)-3-phenylthieno[3,2-b]pyridine]
3000 to 10000	500 to 3000	3000 to 10000	3000 to 10000	FC(F)(F)n1cc(-c2ccc3scc(-c4ccncc4)c3n2)cn1 [Preparative Example 78, 3-(pyridin-4-yl)-5-(1-(trifluoromethyl)-1H-pyrazol-4-yl)thieno[3,2-b]pyridine]
3000 to 10000	3000 to 10000	500 to 3000	3000 to 10000	CC(C)n1cc(-c2ccc3scc(-c4ccncc4)c3n2)cn1 [Preparative Example 79, 5-(1-isopropyl-1H-pyrazol-4-yl)-3-(pyridin-4-yl)thieno[3,2-b]pyridine]
500 to 3000	20 to 99	20 to 99	100 to 499	c1cc(-c2csc3ccc(Nc4cc[nH]n4)nc23)ccn1 [Preparative Example 101, N-(1H-pyrazol-3-yl)-3-(pyridin-4-yl)thieno[3,2-b]pyridin-5-amine]
100 to 499	20 to 99	20 to 99	500 to 3000	Cn1cc(-c2ccc3scc(-c4ccns4)c3n2)cn1 [Preparative Example 67, 3-(isothiazol-5-yl)-5-(1-methyl-1H-pyrazol-4-yl)thieno[3,2-b]pyridine]
500 to 3000	500 to 3000	500 to 3000	3000 to 10000	Cn1cc(-c2ccc3scc(-c4ccncc4C#N)c3n2)cn1 [Preparative Example 34, 4-(5-(1-methyl-1H-pyrazol-4-yl)thieno[3,2-b]pyridin-3-yl)nicotino-nitrile]
100 to 499	100 to 499	100 to 499	3000 to 10000	Cn1cc(-c2ccc3scc(-c4ccnc(F)c4)c3n2)cn1 [Preparative Example 22, 3-(2-fluoropyridin-4-yl)-5-(1-methyl-1H-pyrazol-4-yl)thieno[3,2-b]pyridine]
500 to 3000	3000 to 10000	100 to 499	500 to 3000	Cn1cc(-c2csc3ccc(Oc4ccccc4)nc23)cn1 [Preparative Example 139, 3-(1-methyl-1H-pyrazol-4-yl)-5-phenoxythieno[3,2-b]pyridine]
3000 to 10000	500 to 3000	500 to 3000	3000 to 10000	Cn1ncc(-c2ccc3scc(-c4ccncc4)c3n2)n1 [Preparative Example 94, 5-(2-methyl-2H-1,2,3-triazol-4-yl)-3-(pyridin-4-yl)thieno[3,2-b]pyridine]

SMILES	IC50 [1] [nM]	IC50 [2] [nM]	IC50 [3] [nM]	IC50 [4] [nM]
Cn1cc(-c2ccc3scc(C(O)c4ccccc4)c3n2)cn1 (stereo not drawn) [Preparative Example 74]	500 to 3000	100 to 499	3000 to 10000	500 to 3000
Cn1cc(-c2ccc3scc(-c4ccnc(C#N)c4)c3n2)cn1	500 to 3000	100 to 499	100 to 499	3000 to 10000
Cn1cc(-c2ccc3scc(-c4cnn(Cc5ccccc5)c4)c3n2)cn1	20 to 99	500 to 3000	100 to 499	3000 to 10000
Cn1cc(-c2ccc3scc(C4=CCNCC4)c3n2)cn1 [Preparative Example 9, 5-(1-methyl-1H-pyrazol-4-yl)-3-(1,2,3,6-tetrahydropyridin-4-yl)-thieno[3.2-b]pyridine]	500 to 3000	500 to 3000	500 to 3000	3000 to 10000
